Measured values reported in the supplement of paper PMC13380429.

Tests used:
[1] = test system: A549-ACE2; assay: phospholipidosis EC50; higher = less potent phospholipidosis inducer
[2] = test system: HepG2; assay: drug sensitivity score (DSS) for viability; higher = more toxic; extreme values may be limits of the assay; details: 72 h
[3] = test system: Vero E6; assay: as above; details: 72 h
[4] = test system: U2OS; assay: as above; details: 72 h
[5] = test system: Calu-3; assay: as above; details: 72 h
[6] = test system: A549-ACE2 infected with SARS-CoV-2; assay: morphology score (similarity to uninfected cells); higher = more like uninfected cells; details: 24 h
[7] = test system: Caco-2; assay: relative viability EC50 (midpoint between 100% and the lowest measured viability); higher = less toxic; details: 72 h
[8] = test system: Vero E6; assay: as above; details: 72 h
[9] = test system: U2OS; assay: as above; details: 72 h
[10] = test system: Calu-3; assay: as above; details: 72 h
[11] = test system: A549-ACE2 infected with SARS-CoV-2; assay: SARS-CoV-2 infection rate relative to DMSO; higher = more infection; details: 24 h
[12] = test system: A549-ACE2; assay: drug-induced phospholipidosis relative to tamoxifen; higher = more phospholipidosis
[13] = test system: A549-ACE2 infected with SARS-CoV-2; assay: cell count relative to DMSO; higher = less toxic; details: 24 h
[14] = test system: Caco-2; assay: drug sensitivity score (DSS) for viability; higher = more toxic; extreme values may be limits of the assay; details: 72 h
[15] = test system: HepG2; assay: cell viability relative to DMSO; higher = less toxic; details: 72 h
[16] = test system: Caco-2; assay: as above; details: 72 h
[17] = test system: Vero E6; assay: as above; details: 72 h
[18] = test system: U2OS; assay: as above; details: 72 h
[19] = test system: Calu-3; assay: as above; details: 72 h
[20] = test system: HepG2; assay: relative viability EC50 (midpoint between 100% and the lowest measured viability); higher = less toxic; details: 72 h

CNCCC(Oc1ccc(C(F)(F)F)cc1)c1ccccc1 (configuration not stated) [fluoxetine]
Details	morphology score, 0.3 µM	morphology score, 3 µM	morphology score, 10 µM	morphology score, 30 µM	phospholipidosis EC50, 24 h [µM]	phospholipidosis EC50, 48 h [µM]	phospholipidosis EC50, 72 h [µM]
[1]	–	–	–	–	7.05	7.62	7.61
[6]	0.06	0.65	0.87	0.74	–	–	–

Details	drug sensitivity score
[2]	1.6
[3]	0.2
[4]	0
[5]	0.3

O=C(Nc1ccc(-c2ccnc(Nc3ccc(N4CCOCC4)cc3)n2)cc1)C1CCCN1 (configuration not stated) [XL019]
Details	drug sensitivity score	relative viability EC50 [µM]
[2]	2.8	–
[3]	0	–
[4]	0	–
[5]	0	–
[7]	–	> 10
[8]	–	> 10
[9]	–	> 10
[10]	–	> 10
[14]	0	–

Details	SARS-CoV-2 infection rate, [11] [%]	cell count, [13] [%]	cell viability, [15] [%]	cell viability, [16] [%]	cell viability, [17] [%]	cell viability, [18] [%]	cell viability, [19] [%]	morphology score, [6]
1 nM	–	–	95.1	89.4	102	97.9	109	–
10 nM	–	–	96.3	99.2	102	97.5	98	–
100 nM	–	–	89.9	98.7	98.5	98	107	–
0.3 µM	100	98	–	–	–	–	–	0.04
1000 nM	–	–	88.1	94.2	94.5	96.5	122	–
3 µM	101	99	–	–	–	–	–	-0.09
10 µM	86	109	–	–	–	–	–	0.26
10000 nM	–	–	67.5	86.5	94.6	90.6	119	–
30 µM	46	109	–	–	–	–	–	0.33

drug-induced phospholipidosis [%], [12]
Details	0.3 µM	0.833333 µM	3.33333 µM	6.66667 µM	10 µM	30 µM
24 h	-0.79	-8.22	-5.43	0.07	5.79	96.9
48 h	3.03	-8.76	-8.92	-8.57	-5.17	83.3
72 h	5.53	-8.19	-8.71	-9.82	-6.36	–

C[C@H]1CCC/C=C/[C@@H]2C[C@H](O)C[C@H]2[C@H](O)/C=C/C(=O)O1 [brefeldin-A]
Details	drug sensitivity score	relative viability EC50 [µM]
[2]	25.6	–
[3]	25.7	–
[4]	26.8	–
[5]	24.5	–
[7]	–	0.13
[8]	–	0.066
[9]	–	0.0612
[10]	–	0.0555
[14]	16.3	–
[20]	–	0.0379

Details	SARS-CoV-2 infection rate, [11] [%]	cell count, [13] [%]	cell viability, [15] [%]	cell viability, [16] [%]	cell viability, [17] [%]	cell viability, [18] [%]	cell viability, [19] [%]	morphology score, [6]
1 nM	–	–	95.6	96.6	95.3	99.5	108	–
10 nM	–	–	96.6	89.7	101	99.3	97.1	–
0.1 µM	33	108	–	–	–	–	–	0.73
100 nM	–	–	21.9	71.9	28.4	22.8	32.3	–
0.3 µM	42	52	–	–	–	–	–	0.14
1 µM	16	38	–	–	–	–	–	0.32
1000 nM	–	–	14.2	26.8	3.5	0.2	15.4	–
3 µM	30	35	–	–	–	–	–	0.26
10000 nM	–	–	14.6	28.8	3.3	0.1	10.7	–

[12], 24 h
Details	drug-induced phospholipidosis [%]
0.3 µM	-4.02
0.833333 µM	-5.26
3.33333 µM	-7.24
10 µM	-7

O=S(=O)(c1cccc2cnccc12)N1CCCNCC1 [fasudil]
Details	drug sensitivity score
[2]	0.7
[3]	0
[4]	0
[5]	0
[14]	0

[6]
Details	morphology score
0.3 µM	0.21
3 µM	0.17
10 µM	0.3
30 µM	0.09

COc1ccc2c(C)nc(Nc3nc(C)c(C)c(O)n3)nc2c1 [madrasin]
Details	drug sensitivity score	relative viability EC50 [µM]
[2]	0	–
[3]	0	–
[4]	0	–
[5]	0	–
[7]	–	> 10
[8]	–	> 10
[9]	–	> 10
[10]	–	> 10
[14]	0	–
[20]	–	> 10

Details	SARS-CoV-2 infection rate, [11] [%]	cell count, [13] [%]	cell viability, [15] [%]	cell viability, [16] [%]	cell viability, [17] [%]	cell viability, [18] [%]	cell viability, [19] [%]	morphology score, [6]
1 nM	–	–	89.9	105	82.8	98.6	94.7	–
10 nM	–	–	95.4	99.2	99.1	98.1	84	–
100 nM	–	–	90.9	119	91	102	97	–
0.3 µM	90	102	–	–	–	–	–	0.29
1000 nM	–	–	92.7	101	98.1	98.8	108	–
3 µM	88	105	–	–	–	–	–	0.36
10 µM	96	102	–	–	–	–	–	0.21
10000 nM	–	–	93.5	98.3	111	97	94.6	–
30 µM	1	95	–	–	–	–	–	0.75

drug-induced phospholipidosis [%], [12]
Details	0.3 µM	0.833333 µM	3.33333 µM	6.66667 µM	10 µM	30 µM
24 h	2.49	-0.05	-3.35	-1.32	1.34	56
48 h	3.81	-2.33	-1.09	0.46	1.75	–
72 h	0.061	-7.49	0.0944	-0.243	1.1	–

C=C1C(=O)O[C@@H]2[C@H]3C(C)=CC[C@@]34O[C@@]4(C)CC[C@@H]12 [arglabin]
Details	drug sensitivity score	relative viability EC50 [µM]
[2]	2.5	–
[3]	0	–
[4]	0.6	–
[5]	1.2	–
[8]	–	> 10
[9]	–	> 10
[14]	1.8	–

Details	SARS-CoV-2 infection rate, [11] [%]	cell count, [13] [%]	cell viability, [15] [%]	cell viability, [16] [%]	cell viability, [17] [%]	cell viability, [18] [%]	cell viability, [19] [%]	morphology score, [6]
1 nM	–	–	96.1	91.6	110	97.1	90.2	–
10 nM	–	–	92.2	97.8	99.2	102	99.8	–
100 nM	–	–	96.7	100	110	100	88.3	–
0.3 µM	105	96	–	–	–	–	–	0.02
1000 nM	–	–	98.2	104	103	105	105	–
3 µM	94	100	–	–	–	–	–	0.01
10 µM	95	78	–	–	–	–	–	-0.15
10000 nM	–	–	56.1	58.2	104	76.5	68	–
30 µM	33	36	–	–	–	–	–	0.3

drug-induced phospholipidosis [%], [12]
Details	0.3 µM	0.833333 µM	3.33333 µM	6.66667 µM	10 µM	30 µM
24 h	2.94	-0.34	2.52	0.97	8.21	-1.1
48 h	2.9	0.06	1.52	0.03	4.18	–
72 h	2.96	-0.707	0.896	0.278	0.729	–

O=C1NC(=S)NC(=O)C1C(=O)Nc1ccccc1 [merbarone]
Details	drug sensitivity score	relative viability EC50 [µM]
[2]	0	–
[3]	0	–
[4]	0	–
[5]	0	–
[7]	–	> 10
[8]	–	> 10
[9]	–	> 10
[10]	–	> 10
[14]	0	–
[20]	–	> 10

cell viability [%]
Details	[15]	[16]	[17]	[18]	[19]
1 nM	104	94.7	100	93.9	99.3
10 nM	87.2	93.3	91.6	96.3	100
100 nM	100	103	93.9	97.4	105
1000 nM	99.8	94	92.7	103	106
10000 nM	102	94.5	106	104	110

Cc1c(C)c(NCC(=O)N(C)C2CCN(Cc3ccc(C(N)=O)cc3)CC2)c(C)c(C)c1N
Details	drug sensitivity score	relative viability EC50 [µM]
[2]	0	–
[3]	0	–
[4]	0	–
[5]	0	–
[7]	–	> 10
[8]	–	> 10
[9]	–	> 10
[10]	–	> 10
[14]	0	–
[20]	–	> 10

cell viability [%]
Details	[15]	[16]	[17]	[18]	[19]
1 nM	97.5	98.7	96.1	100	105
10 nM	100	99.6	97.7	97	91
100 nM	101	92.7	92.4	102	101
1000 nM	102	96.6	101	99.2	104
10000 nM	96.7	112	105	98.1	103

CC(C)Nc1cccnc1N1CCN(C(=O)c2cc3cc(NS(C)(=O)=O)ccc3[nH]2)CC1 [delavirdine]
Details	drug sensitivity score	relative viability EC50 [µM]
[2]	0	–
[3]	0	–
[4]	0	–
[5]	0	–
[7]	–	> 10
[8]	–	> 10
[9]	–	> 10
[10]	–	> 10
[14]	0	–
[20]	–	> 10

cell viability [%]
Details	[15]	[16]	[17]	[18]	[19]
1 nM	98.8	99.4	92.2	101	100
10 nM	108	96.4	99	101	93
100 nM	99.2	101	87.9	102	104
1000 nM	115	101	95.3	98.5	90.5
10000 nM	107	94.2	105	102	105

Cc1cc2c(s1)Nc1ccccc1N=C2N1CCN(C)CC1 [olanzapine]
Details	drug sensitivity score	relative viability EC50 [µM]
[2]	0	–
[3]	0	–
[4]	0	–
[5]	0	–
[7]	–	> 10
[8]	–	> 10
[9]	–	> 10
[10]	–	> 10
[14]	0	–
[20]	–	> 10

cell viability [%]
Details	[15]	[16]	[17]	[18]	[19]
1 nM	118	97.8	96.4	93.1	99
10 nM	110	91.5	96.8	99	102
100 nM	121	98.1	96	95.2	104
1000 nM	98.5	99.1	92.7	99.6	104
10000 nM	106	103	104	102	108

COCCN(C(=O)c1cc(OC)c(OC)c(OC)c1)c1nc(-c2ccccc2)cs1 [eact]
Details	drug sensitivity score	relative viability EC50 [µM]
[2]	0	–
[3]	0	–
[4]	0	–
[5]	0.4	–
[7]	–	> 10
[8]	–	> 10
[9]	–	> 10
[10]	–	> 10
[14]	0.1	–
[20]	–	> 10

cell viability [%]
Details	[15]	[16]	[17]	[18]	[19]
1 nM	107	103	94.4	102	107
10 nM	95.6	84.3	104	97	96.2
100 nM	104	96.2	90.4	100	94.1
1000 nM	104	88.9	96.6	96.1	92.8
10000 nM	92.5	90.9	97.5	106	85.1

NC(=O)CC[C@H](N)C(=O)O [L-glutamine]
Details	drug sensitivity score	relative viability EC50 [µM]
[2]	0	–
[3]	0	–
[4]	0	–
[5]	0	–
[7]	–	> 10
[8]	–	> 10
[9]	–	> 10
[10]	–	> 10
[14]	0	–
[20]	–	> 10

cell viability [%]
Details	[15]	[16]	[17]	[18]	[19]
1 nM	92.6	93.2	100	102	91.5
10 nM	102	90.8	100	102	91.7
100 nM	104	100	95	94.4	96.9
1000 nM	91.6	96.1	93	99.1	95
10000 nM	100	101	92.7	93	91.2
